Some test systems named below: UACC-257 melanoma; SK-OV-3 ovarian; HT29 colon; IGROV1 ovarian; HCT-15 colon; NCI-H460 lung; A549 NSCLC; SK-MEL-28 melanoma; 786-0 renal; DU-145 prostate; UO-31 renal; SN12C renal; CAKI-1 renal; UACC-62 melanoma; MALME-3M melanoma; RPMI-8226 leukemia; SR leukemia; SF-539 CNS.
Holding throughout (experiment): growth of human tumour cells (NCI), 48 h

Molecules are shown by their SMILES.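 Growth conditions: 96-well plates. Treatment: test compound, 48 hours, 5 concentrations. Analysis: linear interpolation between bracketing concentrations; unreached endpoints set to highest concentration. TGI marks complete inhibition of growth.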

As for `Brc1cccc(Nc2ncnc3sc4c(c23)CCC(Nc2cccc(Br)c2)C4)c1` (centres undefined), the TGI with UACC-257 melanoma, in the assay on SK-OV-3 ovarian, in the assay with HT29 colon, in the assay on IGROV1 ovarian, in the assay with HCT-15 colon and in the assay with NCI-H460 lung was greater than 100 µM throughout. Besides, the TGI in the assay with A549 NSCLC, in the assay with SK-MEL-28 melanoma, in the assay on 786-0 renal, in the assay on DU-145 prostate, in the assay on UO-31 renal and in the assay on SN12C renal was greater than 100 µM each time. The TGI in the assay on CAKI-1 renal, in the assay with UACC-62 melanoma and in the assay on MALME-3M melanoma was greater than 100 µM throughout.
As to `Cc1ccc(/C=N/Nc2cc(C)c3ccccc3n2)s1`, the TGI was 50.7 µM with UACC-257 melanoma; 43.2 µM in the assay with SK-OV-3 ovarian; 18.7 µM with HT29 colon; 24.9 µM in the assay with IGROV1 ovarian; 25.6 µM in the assay with HCT-15 colon; 29.1 µM in the assay with RPMI-8226 leukemia. For the same molecule, the TGI is 40.6 µM in the assay on A549 NSCLC; greater than 100 µM in the assay on SK-MEL-28 melanoma; greater than 100 µM with SR leukemia; greater than 100 µM in the assay on 786-0 renal; 51.5 µM in the assay with SF-539 CNS; greater than 100 µM in the assay on UO-31 renal. In addition, the TGI in the assay with SN12C renal is 41.1 µM; in the assay with CAKI-1 renal, 37 µM; in the assay on UACC-62 melanoma, greater than 100 µM; in the assay on MALME-3M melanoma it was 22.4 µM.
As to `CC1=CSC(O)(c2ccc(Cl)cc2)c2noc(=O)n21` (centres undefined), the TGI with UACC-257 melanoma is 60.3 µM; in the assay with SK-OV-3 ovarian, greater than 100 µM; in the assay with HT29 colon, greater than 100 µM; with IGROV1 ovarian, greater than 100 µM; with HCT-15 colon it was greater than 100 µM; in the assay with RPMI-8226 leukemia it was greater than 100 µM. Besides, the TGI in the assay on NCI-H460 lung, in the assay on A549 NSCLC, in the assay with SK-MEL-28 melanoma, in the assay on SR leukemia, with 786-0 renal and in the assay on SF-539 CNS was greater than 100 µM in each case. Further, the TGI in the assay on DU-145 prostate, in the assay on UO-31 renal, in the assay on SN12C renal, in the assay on CAKI-1 renal and in the assay on UACC-62 melanoma was greater than 100 µM throughout.
`COc1ccc([C@@H]2CC(=O)NCCCNCCCCNCCCN2)cc1`: the TGI with UACC-257 melanoma, in the assay on SK-OV-3 ovarian, in the assay on HT29 colon, in the assay on IGROV1 ovarian, with HCT-15 colon and with RPMI-8226 leukemia was greater than 100 µM throughout. Further, the TGI in the assay on NCI-H460 lung, with A549 NSCLC, in the assay with SK-MEL-28 melanoma, in the assay on SR leukemia, in the assay with 786-0 renal and in the assay with SF-539 CNS was greater than 100 µM each time. Besides, the TGI in the assay on UO-31 renal, in the assay on SN12C renal, with CAKI-1 renal, in the assay on UACC-62 melanoma and with MALME-3M melanoma was greater than 100 µM each time.
For `Nc1ccc(C(=O)NN2C(=O)C(Cl)C2c2cc(Br)cc(Br)c2O)cc1` (centres undefined), the TGI in the assay with UACC-257 melanoma was 85.9 µM; in the assay with SK-OV-3 ovarian, greater than 100 µM; in the assay with HT29 colon it was greater than 100 µM; with IGROV1 ovarian, greater than 100 µM; in the assay on HCT-15 colon, greater than 100 µM; in the assay on RPMI-8226 leukemia, greater than 100 µM. In addition, the TGI in the assay with NCI-H460 lung was greater than 100 µM; in the assay with A549 NSCLC, 91.1 µM; in the assay on SK-MEL-28 melanoma it was greater than 100 µM; in the assay with SR leukemia, greater than 100 µM; in the assay with 786-0 renal, greater than 100 µM; with SF-539 CNS, 57 µM. In addition, the TGI is 22.4 µM in the assay with UO-31 renal, 64 µM in the assay on CAKI-1 renal, 24.8 µM with UACC-62 melanoma and 97.9 µM in the assay with MALME-3M melanoma.
Turning to `CC(=O)/C=C(/C=N/O)c1ccccc1`, the TGI with UACC-257 melanoma, in the assay on SK-OV-3 ovarian, in the assay on HT29 colon, in the assay with IGROV1 ovarian, in the assay on HCT-15 colon and in the assay on RPMI-8226 leukemia was greater than 100 µM throughout. The TGI with NCI-H460 lung, with A549 NSCLC, with SK-MEL-28 melanoma, in the assay on SR leukemia, with 786-0 renal and in the assay on SF-539 CNS was greater than 100 µM throughout. The TGI in the assay with UO-31 renal, with SN12C renal, in the assay with CAKI-1 renal, in the assay with UACC-62 melanoma and in the assay on MALME-3M melanoma was greater than 100 µM each time.
For the molecule `CS(=O)(=O)N1CC(CCl)c2ccc(NCCN)cc21` (centres undefined), the TGI in the assay on UACC-257 melanoma is greater than 100 µM; in the assay with SK-OV-3 ovarian it was 87.9 µM; in the assay on HT29 colon, greater than 100 µM; in the assay with IGROV1 ovarian it was 49.8 µM; in the assay on HCT-15 colon, greater than 100 µM; in the assay with RPMI-8226 leukemia, greater than 100 µM. In addition, the TGI in the assay on NCI-H460 lung was greater than 100 µM; with A549 NSCLC it was greater than 100 µM; in the assay with SK-MEL-28 melanoma it was greater than 100 µM; with 786-0 renal, 72 µM; with SF-539 CNS it was greater than 100 µM; with DU-145 prostate, greater than 100 µM. For the same molecule, the TGI with UO-31 renal, in the assay with SN12C renal, in the assay with CAKI-1 renal and with MALME-3M melanoma was greater than 100 µM in each case.
As to `CC(O)CCNC(=O)Nc1c(C(F)(F)F)cc(-c2ccccc2)[nH]c1=O` (centres undefined), the TGI in the assay on UACC-257 melanoma, in the assay with SK-OV-3 ovarian, with HT29 colon, in the assay with IGROV1 ovarian, with HCT-15 colon and with RPMI-8226 leukemia was greater than 100 µM each time. Further, the TGI with NCI-H460 lung, with A549 NSCLC, with SK-MEL-28 melanoma, with 786-0 renal, with DU-145 prostate and with UO-31 renal was greater than 100 µM each time. Besides, the TGI in the assay on SN12C renal, in the assay with CAKI-1 renal, with UACC-62 melanoma and in the assay on MALME-3M melanoma was greater than 100 µM throughout.
In the case of `O=[N+]([O-])c1cc2c(cc1O)[nH]c1cccc([N+](=O)[O-])c12`, the TGI in the assay on UACC-257 melanoma, with HT29 colon, in the assay on HCT-15 colon, in the assay on RPMI-8226 leukemia, in the assay with NCI-H460 lung and with A549 NSCLC was greater than 100 µM in each case. Also, the TGI in the assay on SK-MEL-28 melanoma, in the assay with SR leukemia, in the assay on 786-0 renal, in the assay with SF-539 CNS, in the assay on UO-31 renal and with SN12C renal was greater than 100 µM each time. In addition, the TGI in the assay with CAKI-1 renal and in the assay on MALME-3M melanoma was greater than 100 µM throughout.

The values are drawn from PubChem BioAssay (NCI).
